From ChEMBL document CHEMBL5661979, “Pharmacological inhibition of BMK1 suppresses tumor growth through promyelocytic leukemia protein” (Cancer Cell, 2010)
Activity calls are given as the source filed them. No cut-off for these calls is given here.

Tests used:
[1] = molecular target: T1, Serine/threonine-protein kinase TAO2 (Homo sapiens) (UniProt Q9UL54); assay: Inhibition of TAO2 in human HeLa cells lysate at 50 uM pre incubated for 15 mins followed by ATP acyl phosphate probe addition and measured after 10 mins by LC-MS/MS analysis relative to control; format: subcellular; details: time 25.0 min
T1 sequence (whole entry): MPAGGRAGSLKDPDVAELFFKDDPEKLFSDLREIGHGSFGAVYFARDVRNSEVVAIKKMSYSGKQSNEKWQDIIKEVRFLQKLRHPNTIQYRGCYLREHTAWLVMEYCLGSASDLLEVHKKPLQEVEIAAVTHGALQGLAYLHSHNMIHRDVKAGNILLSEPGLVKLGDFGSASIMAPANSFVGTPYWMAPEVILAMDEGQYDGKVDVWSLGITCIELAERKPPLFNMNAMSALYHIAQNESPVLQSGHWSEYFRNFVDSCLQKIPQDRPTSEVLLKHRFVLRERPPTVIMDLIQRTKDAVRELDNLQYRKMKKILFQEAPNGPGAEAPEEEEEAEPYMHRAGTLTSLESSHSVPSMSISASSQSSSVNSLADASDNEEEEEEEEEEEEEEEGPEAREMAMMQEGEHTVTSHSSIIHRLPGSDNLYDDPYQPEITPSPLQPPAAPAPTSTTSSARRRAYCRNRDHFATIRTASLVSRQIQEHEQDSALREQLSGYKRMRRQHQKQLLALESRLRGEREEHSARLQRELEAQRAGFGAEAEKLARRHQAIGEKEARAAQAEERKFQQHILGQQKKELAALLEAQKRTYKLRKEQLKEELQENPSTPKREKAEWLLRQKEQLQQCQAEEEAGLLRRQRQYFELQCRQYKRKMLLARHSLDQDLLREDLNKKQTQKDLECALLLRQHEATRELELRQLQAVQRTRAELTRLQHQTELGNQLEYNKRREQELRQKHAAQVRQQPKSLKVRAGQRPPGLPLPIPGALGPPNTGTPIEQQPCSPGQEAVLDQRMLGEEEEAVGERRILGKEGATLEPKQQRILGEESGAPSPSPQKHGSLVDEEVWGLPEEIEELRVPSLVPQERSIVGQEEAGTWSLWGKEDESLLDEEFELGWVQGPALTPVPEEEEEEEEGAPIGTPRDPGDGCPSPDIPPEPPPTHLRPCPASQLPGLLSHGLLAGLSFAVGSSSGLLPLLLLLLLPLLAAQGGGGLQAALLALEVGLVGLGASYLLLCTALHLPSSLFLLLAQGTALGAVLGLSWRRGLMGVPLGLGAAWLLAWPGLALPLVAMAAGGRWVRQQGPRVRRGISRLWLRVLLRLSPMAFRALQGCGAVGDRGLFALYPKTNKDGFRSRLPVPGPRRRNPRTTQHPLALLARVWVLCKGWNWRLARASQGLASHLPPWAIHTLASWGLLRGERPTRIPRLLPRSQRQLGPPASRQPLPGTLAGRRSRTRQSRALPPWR

[2] = molecular target: Serine/threonine-protein kinase LATS2 (Homo sapiens) (UniProt Q9NRM7); assay: Inhibition of LATS2 in human HeLa cells lysate at 2 uM pre incubated for 15 mins followed by ADP acyl phosphate probe addition and measured after 10 mins by LC-MS/MS analysis relative to control; format: subcellular; details: time 25.0 min
[3] = molecular target: Glycogen synthase kinase-3 beta (Homo sapiens, UniProt P49841); assay: Inhibition of GSK3B isoform 2 in human HeLa cells lysate at 50 uM pre incubated for 15 mins followed by ATP acyl phosphate probe addition and measured after 10 mins by LC-MS/MS analysis relative to control; format: subcellular; details: time 25.0 min
[4] = molecular target: T2, Serine/threonine-protein kinase Nek9 (Homo sapiens) (UniProt Q8TD19); assay: Inhibition of NEK9 in human HeLa cells lysate at 2 uM pre incubated for 15 mins followed by ATP acyl phosphate probe addition and measured after 10 mins by LC-MS/MS analysis relative to control; format: subcellular; details: time 25.0 min
T2 sequence (whole entry): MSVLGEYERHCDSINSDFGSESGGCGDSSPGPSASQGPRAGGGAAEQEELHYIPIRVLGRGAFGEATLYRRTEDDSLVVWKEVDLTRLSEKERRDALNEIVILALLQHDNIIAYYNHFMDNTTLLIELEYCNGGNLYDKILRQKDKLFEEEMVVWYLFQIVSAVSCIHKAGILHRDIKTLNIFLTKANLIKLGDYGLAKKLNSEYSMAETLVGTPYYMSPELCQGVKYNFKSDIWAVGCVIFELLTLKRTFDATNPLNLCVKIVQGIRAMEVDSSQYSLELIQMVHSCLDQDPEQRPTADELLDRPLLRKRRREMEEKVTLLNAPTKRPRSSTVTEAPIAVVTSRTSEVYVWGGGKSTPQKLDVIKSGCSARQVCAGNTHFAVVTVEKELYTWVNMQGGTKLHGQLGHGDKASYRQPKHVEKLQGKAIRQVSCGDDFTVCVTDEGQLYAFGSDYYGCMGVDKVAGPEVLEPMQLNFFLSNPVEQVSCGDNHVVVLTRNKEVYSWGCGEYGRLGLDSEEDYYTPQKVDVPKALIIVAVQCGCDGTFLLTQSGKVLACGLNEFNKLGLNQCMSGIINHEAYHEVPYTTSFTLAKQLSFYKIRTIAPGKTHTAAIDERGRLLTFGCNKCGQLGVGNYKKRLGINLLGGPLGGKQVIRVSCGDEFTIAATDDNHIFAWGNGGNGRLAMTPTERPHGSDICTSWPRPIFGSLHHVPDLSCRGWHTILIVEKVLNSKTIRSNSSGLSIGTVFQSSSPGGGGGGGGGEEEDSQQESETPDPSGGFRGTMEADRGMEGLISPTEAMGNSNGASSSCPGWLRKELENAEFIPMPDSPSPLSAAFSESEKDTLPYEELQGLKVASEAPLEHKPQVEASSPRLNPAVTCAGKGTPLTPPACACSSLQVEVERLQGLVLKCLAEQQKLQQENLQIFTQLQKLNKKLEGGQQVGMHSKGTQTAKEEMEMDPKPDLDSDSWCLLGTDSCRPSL

[5] = molecular target: T2, Serine/threonine-protein kinase Nek9 (Homo sapiens); assay: Inhibition of NEK9 in human HeLa cells lysate at 10 uM pre incubated for 15 mins followed by ADP acyl phosphate probe addition and measured after 10 mins by LC-MS/MS analysis relative to control; format: subcellular; details: time 25.0 min
[6] = molecular target: Ribosomal protein S6 kinase alpha-5 (Homo sapiens, UniProt O75582); assay: Inhibition of MSK1 domain 1 in human HeLa cells lysate at 10 uM pre incubated for 15 mins followed by ADP acyl phosphate probe addition and measured after 10 mins by LC-MS/MS analysis relative to control; format: subcellular; details: time 25.0 min
Lewis lung carcinoma = assay: Antitumor activity against PML knock down mouse LL2 cells transfected with ad-PML allografted in C57Bl/6 mouse assessed as reduction tumor growth at 50 mg/kg, ip administered on day 8 post implantation measured after 20 days; details: time 12.0 day

Chain of Glycogen synthase kinase-3 beta (P49841 whole entry, looked up, canonical isoform): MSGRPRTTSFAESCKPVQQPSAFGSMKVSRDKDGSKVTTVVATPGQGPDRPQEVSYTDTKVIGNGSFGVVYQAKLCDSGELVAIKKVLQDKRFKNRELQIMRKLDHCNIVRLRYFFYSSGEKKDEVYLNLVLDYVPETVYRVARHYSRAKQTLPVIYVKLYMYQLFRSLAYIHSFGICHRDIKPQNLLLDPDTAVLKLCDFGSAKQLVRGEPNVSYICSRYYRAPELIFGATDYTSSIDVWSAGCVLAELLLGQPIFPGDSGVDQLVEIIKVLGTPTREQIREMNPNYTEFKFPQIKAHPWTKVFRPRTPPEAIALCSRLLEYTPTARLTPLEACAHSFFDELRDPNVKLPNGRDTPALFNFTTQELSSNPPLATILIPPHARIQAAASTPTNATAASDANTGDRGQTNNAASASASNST
Chain of Ribosomal protein S6 kinase alpha-5 (O75582 whole entry, looked up, the tested form may be a part): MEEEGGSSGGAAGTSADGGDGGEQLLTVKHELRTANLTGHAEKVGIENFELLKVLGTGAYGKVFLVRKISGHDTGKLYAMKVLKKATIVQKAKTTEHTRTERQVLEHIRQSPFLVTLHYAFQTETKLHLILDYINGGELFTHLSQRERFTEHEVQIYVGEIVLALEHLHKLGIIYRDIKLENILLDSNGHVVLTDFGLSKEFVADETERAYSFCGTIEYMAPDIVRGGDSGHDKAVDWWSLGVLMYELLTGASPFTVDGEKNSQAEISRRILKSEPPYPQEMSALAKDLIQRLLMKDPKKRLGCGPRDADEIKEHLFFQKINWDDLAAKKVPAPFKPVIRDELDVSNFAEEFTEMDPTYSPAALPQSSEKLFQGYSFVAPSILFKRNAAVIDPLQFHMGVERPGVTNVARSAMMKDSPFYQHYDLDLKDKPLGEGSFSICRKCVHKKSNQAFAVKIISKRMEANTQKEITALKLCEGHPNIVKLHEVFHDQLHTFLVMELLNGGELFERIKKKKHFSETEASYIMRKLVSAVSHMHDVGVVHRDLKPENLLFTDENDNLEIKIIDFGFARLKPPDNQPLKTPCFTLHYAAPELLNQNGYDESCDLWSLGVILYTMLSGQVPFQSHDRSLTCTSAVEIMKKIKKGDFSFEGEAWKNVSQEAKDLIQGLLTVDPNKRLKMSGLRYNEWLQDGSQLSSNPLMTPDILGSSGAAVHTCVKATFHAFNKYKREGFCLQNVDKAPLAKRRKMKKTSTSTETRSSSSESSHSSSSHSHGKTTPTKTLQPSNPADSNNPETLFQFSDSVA
Chain of Serine/threonine-protein kinase LATS2 (Homo sapiens) (Q9NRM7 whole entry, canonical isoform): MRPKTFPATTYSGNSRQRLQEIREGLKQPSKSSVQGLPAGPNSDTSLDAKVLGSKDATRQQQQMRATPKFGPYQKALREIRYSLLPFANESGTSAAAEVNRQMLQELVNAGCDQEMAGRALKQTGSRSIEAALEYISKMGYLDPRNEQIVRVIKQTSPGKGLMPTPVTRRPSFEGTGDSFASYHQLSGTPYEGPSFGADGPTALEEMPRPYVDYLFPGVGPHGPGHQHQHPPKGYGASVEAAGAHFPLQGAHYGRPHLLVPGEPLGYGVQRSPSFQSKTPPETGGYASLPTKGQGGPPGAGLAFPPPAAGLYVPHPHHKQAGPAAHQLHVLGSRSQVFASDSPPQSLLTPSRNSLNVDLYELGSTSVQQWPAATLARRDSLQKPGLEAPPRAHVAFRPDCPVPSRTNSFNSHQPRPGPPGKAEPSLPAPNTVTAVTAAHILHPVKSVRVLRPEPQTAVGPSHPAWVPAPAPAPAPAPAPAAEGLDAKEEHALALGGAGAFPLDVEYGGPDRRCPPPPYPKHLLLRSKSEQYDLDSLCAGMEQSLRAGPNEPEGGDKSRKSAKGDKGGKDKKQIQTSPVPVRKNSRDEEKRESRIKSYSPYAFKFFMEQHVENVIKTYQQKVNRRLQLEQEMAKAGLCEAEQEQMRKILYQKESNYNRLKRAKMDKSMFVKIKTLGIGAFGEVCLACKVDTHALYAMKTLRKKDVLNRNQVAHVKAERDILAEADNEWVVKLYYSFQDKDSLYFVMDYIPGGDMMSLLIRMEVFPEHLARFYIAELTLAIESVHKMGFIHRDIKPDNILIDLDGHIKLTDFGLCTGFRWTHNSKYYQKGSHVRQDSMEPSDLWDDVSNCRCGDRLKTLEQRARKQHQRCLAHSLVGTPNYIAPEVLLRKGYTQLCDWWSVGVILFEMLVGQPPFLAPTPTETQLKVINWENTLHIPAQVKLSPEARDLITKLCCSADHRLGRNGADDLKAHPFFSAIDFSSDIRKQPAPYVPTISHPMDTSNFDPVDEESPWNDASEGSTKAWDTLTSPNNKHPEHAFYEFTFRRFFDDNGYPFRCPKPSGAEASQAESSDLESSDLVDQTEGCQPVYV

## CCOc1cc(N2CCC(O)CC2)ccc1Nc1ncc2c(n1)N(C)c1ccccc1C(=O)N2C
[1]
  inhibition: 6.6%
[2]
  inhibition: -4%
[3]
  inhibition: 22.3%
[4]
  inhibition: 3%
[5]
  inhibition: 4.3%
[6]
  inhibition: -7.3%
Lewis lung carcinoma
  Activity: Active
